Data: patent EP2818472A1, “Imidazo[4,5-c]pyridine and pyrrolo[3,2-c]pyridine compounds as G-protein-coupled receptor kinase 5 (GRK5) modulators” (Max-Planck-Gesellschaft zur Förderung der Wissenschaften …, priority 2013, dated 2014)

System: beta-TC6 cells
Experiment: Insulin HTRF assay (relative activity Ar) in beta-TC6 cells
Format: cell-based, mouse
Details: Mus musculus, Beta-TC6, 4 h, insulin HTRF, supernatant of beta-TC6 cells, incubation with test compound at 37°C for 2, 3, 4h; read-out: Ar (relative activity)
Description: For further screening of compounds derived from compounds described above for their ability to regulate insulin release an insulin HTRF® (Homogeneous Time-Resolved Fluorescence; Cisbio International, France) was used. This assay is based on two antibodies against insulin binding to different epitopes of insulin. One of these antibodies is coupled to Europium (Ab-Eu-Cryptate) and the other one to the fluorophore XL665 (Ab-XL665). If the insulin is secreted into the supernatant of cell culture, both antibodies can bind to insulin and come therefore into close proximity, which allows upon excitation that energy transfer between (FRET) the long-life fluorescent donor Europium (cryptate) and the acceptors XL665. FRET increases proportionally with insulin concentration.
The automated assay protocol is as follows: • On day 1, 15k beta-TC6 cells per well were seeded for 24 or 48 h in 50 µL complete medium. On day 2 or respective on day 3, the medium is removed and cells are washed with 60 µL 1xPBS and 20 µL induction buffer is added using BioTek washer. Subsequently, 10 µL Sunitininb (5 -µM f.c.) or the test compound in induction buffer; 0.5% f.c. DMSO (CyBi-well) is transferred to the cells. The cells are then incubated at 37°C for 2, 3, 4h.
First 10 µL supernatant is transferred from the cell plates in HTRF plates (CyBi-well). 10 µL of 0, 1, 2, and 4 ng/ml insulin standard controls in assay medium is used as a control. To each well 10 µL of combined 1:25 Ab-XL665 (Acc) and 1:20 Ab-Eu-Cryptate (WellMate) are added and incubated for 120 min at RT in the dark. Finally HTRF is measured on ViewLux ultra high throughput microplate imager (PerkinElmer).
The evaluation software DataFactoty derives relative activities Ar according to the following equation: Ar = (V-R(0%control))/(R(100%control) -R0%control)) × 100 [formula]
The activity of the compounds was classified according to their Ar (relative activity) into the following ranges: […]

| Structure (SMILES) | Emax [%] |
| --- | --- |
| COc1ccc(Nc2cc3[nH]c(-c4cccnc4)cc3cn2)cn1 [Compound 75, N-(6-methoxy-3-pyridyl)-2-(3-pyridyl)-1H-pyrrolo[3,2-c]pyridin-6-amine] | > 100 |
| c1cncc(-c2cc3cnc(Nc4ccncc4)cc3[nH]2)c1 [Compound 76, 2-(3-pyridyl)-N-(4-pyridyl)-1H-pyrrolo[3,2-c]pyridin-6-amine] | 30 to 50 |
| c1cncc(-c2cc3cnc(N4CCOCC4)cc3[nH]2)c1 [Compound 77, 4-[2-(3-pyridyl)-1H-pyrrolo[3,2-c]pyridin-6-yl]morpholine] | 50 to 100 |
| Clc1ccccc1Nc1cc2[nH]c(-c3cccnc3)cc2cn1 [Compound 78, N-(2-chlorophenyl)-2-(3-pyridyl)-1H-pyrrolo[3,2-c]pyridin-6-amine] | 50 to 100 |
| Fc1ccc(C(F)(F)F)cc1Nc1cc2[nH]c(-c3cccnc3)cc2cn1 [Compound 79, N-[2-fluoro-5-(trifluoromethyl)phenyl]-2-(3-pyridyl)-1H-pyrrolo[3,2-c]pyridin-6-amine] | 30 to 50 |
| CC(=O)Nc1cccc(Nc2cc3[nH]c(-c4cccnc4)cc3cn2)c1 [Compound 80, N-[3-[[2-(3-pyridyl)-1H-pyrrolo[3,2-c]pyridin-6-yl]amino]phenyl]acetamide] | > 100 |
| CC(C)Oc1ccc(Nc2cc3[nH]c(-c4cccnc4)cc3cn2)cc1 [Compound 81, N-(4-isopropoxyphenyl)-2-(3-pyridyl)-1H-pyrrolo[3,2-c]pyridin-6-amine] | 30 to 50 |
| COc1cc(Nc2cc3c(cn2)cc(-c2cccnc2)n3C)cc(OC)c1OC [Compound 82, 1-methyl-2-(3-pyridyl)-N-(3,4,5-trimethoxyphenyl)pyrrolo[3,2-c]pyridin-6-amine] | 50 to 100 |
| COc1ccc(Nc2cc3c(cn2)cc(-c2cccnc2)n3C)c(OC)c1 [Compound 83, N-(2,4-dimethoxyphenyl)-1-methyl-2-(3-pyridyl)pyrrolo[3,2-c]pyridin-6-amine] | 50 to 100 |
| Cn1c(-c2cccnc2)cc2cnc(Nc3ccc4c(c3)OCCO4)cc21 [Compound 84, N-(2,3-dihydro-1,4-benzodioxin-6-yl)-1-methyl-2-(3-pyridyl)pyrrolo[3,2-c]pyridin-6-amine] | 50 to 100 |
| COc1ccc(Nc2cc3c(cn2)cc(-c2cccnc2)n3C)cc1OC [Compound 85, N-(3,4-dimethoxyphenyl)-1-methyl-2-(3-pyridyl)pyrrolo[3,2-c]pyridin-6-amine] | 50 to 100 |
| COc1ccc(Nc2cc3c(cn2)cc(-c2cccnc2)n3C)cn1 [Compound 86, N-(6-methoxy-3-pyridyl)-1-methyl-2-(3-pyridyl)pyrrolo[3,2-c]pyridin-6-amine] | 50 to 100 |
| Cn1c(-c2cccnc2)cc2cnc(Nc3cccnc3)cc21 [Compound 87, 1-methyl-N,2-bis(3-pyridyl)pyrrolo[3,2-c]pyridin-6-amine] | 50 to 100 |
| Cn1c(-c2cccnc2)cc2cnc(Nc3ccccc3)cc21 [Compound 88, 1-methyl-N-phenyl-2-(3-pyridyl)pyrrolo[3,2-c]pyridin-6-amine] | 30 to 50 |
| CN(C)c1cccc(Nc2cc3c(cn2)cc(-c2cccnc2)n3C)c1 [Compound 89, N1,N1-dimethyl-N3-[1-methyl-2-(3-pyridyl)pyrrolo[3,2-c]pyridin-6-yl]benzene-1,3-diamine] | 50 to 100 |
| Cc1cccc(Nc2cc3c(cn2)cc(-c2cccnc2)n3C)c1 [Compound 90, 1-methyl-N-(m-tolyl)-2-(3-pyridyl)pyrrolo[3,2-c]pyridin-6-amine] | 30 to 50 |
| COc1ccc(Nc2cc3c(cn2)cc(-c2cccnc2)n3C)cc1 [Compound 91, N-(4-methoxyphenyl)-1-methyl-2-(3-pyridyl)pyrrolo[3,2-c]pyridin-6-amine] | 50 to 100 |
| Cn1c(-c2cccnc2)cc2cnc(Nc3ccc(F)cc3)cc21 [Compound 92, N-(4-fluorophenyl)-1-methyl-2-(3-pyridyl)pyrrolo[3,2-c]pyridin-6-amine] | 0 to 30 |
| Cn1c(-c2cccnc2)cc2cnc(Nc3ccc4c(c3)OCO4)cc21 [Compound 93, N-(1,3-benzodioxol-5-yl)-1-methyl-2-(3-pyridyl)pyrrolo[3,2-c]pyridin-6-amine] | 50 to 100 |
| Cn1c(-c2cccnc2)cc2cnc(N3CCOCC3)cc21 [Compound 94, 4-[1-methyl-2-(3-pyridyl)pyrrolo[3,2-c]pyridin-6-yl]morpholine] | 30 to 50 |

| Structure (SMILES) | Emax [%] |
| --- | --- |
| CN(C)C(=O)c1ccc(Nc2cc3c(cn2)cc(-c2cccnc2)n3C)cc1 [Compound 95, N,N-dimethyl-4-[[1-methyl-2-(3-pyridyl)pyrrolo[3,2-c]pyridin-6-yl]amino]benzamide] | 50 to 100 |
| CC(=O)Nc1cccc(Nc2cc3c(cn2)cc(-c2cccnc2)n3C)c1 [Compound 96, N-[3-[[1-methyl-2-(3-pyridyl)pyrrolo[3,2-c]pyridin-6-yl]amino]phenyl]acetamide] | 50 to 100 |
| CC(=O)c1cccc(Nc2cc3c(cn2)cc(-c2cccnc2)n3C)c1 [Compound 97, 1-[3-[[1-methyl-2-(3-pyridyl)pyrrolo[3,2-c]pyridin-6-yl]amino]phenyl]ethanone] | 30 to 50 |
| c1ccc(Cn2c(-c3cccnc3)cc3cnc(Nc4ccccn4)cc32)cc1 [Compound 98, 1-benzyl-N-(2-pyridyl)-2-(3-pyridyl)pyrrolo[3,2-c]pyridin-6-amine] | 30 to 50 |
| c1ccc(Cn2c(-c3cccnc3)cc3cnc(Nc4ccncn4)cc32)cc1 [Compound 99, 1-benzyl-2-(3-pyridyl)-N-pyrimidin-4-yl-pyrrolo[3,2-c]pyridin-6-amine] | 30 to 50 |
| COc1cc(Nc2cc3[nH]c(-c4cncn4C)cc3cn2)cc(OC)c1OC [Compound 100, 2-(3-methylimidazol-4-yl)-N-(3,4,5-trimethoxyphenyl)-1H-pyrrolo[3,2-c]pyridin-6-amine] | > 100 |
| COc1cccc(Nc2cc3[nH]c(-c4cncn4C)cc3cn2)c1 [Compound 101, N-(3-methoxyphenyl)-2-(3-methylimidazol-4-yl)-1H-pyrrolo[3,2-c]pyridin-6-amine] | 50 to 100 |
| COc1ccc(Nc2cc3[nH]c(-c4cncn4C)cc3cn2)cc1OC [Compound 102, N-(3,4-dimethoxyphenyl)-2-(3-methylimidazol-4-yl)-1H-pyrrolo[3,2-c]pyridin-6-amine] | > 100 |
| Cn1cncc1-c1cc2cnc(Nc3cccc(Cl)c3)cc2[nH]1 [Compound 103, N-(3-chlorophenyl)-2-(3-methylimidazol-4-yl)-1H-pyrrolo[3,2-c]pyridin-6-amine] | 30 to 50 |
| CN(C)c1cccc(Nc2cc3[nH]c(-c4cncn4C)cc3cn2)c1 [Compound 104, N1,N1-dimethyl-N3-[2-(3-methylimidazol-4-yl)-1H-pyrrolo[3,2-c]pyridin-6-yl]benzene-1,3-diamine] | 50 to 100 |
| Cc1cccc(Nc2cc3[nH]c(-c4cncn4C)cc3cn2)c1 [Compound 105, 2-(3-methylimidazol-4-yl)-N-(m-tolyl)-1H-pyrrolo[3,2-c]pyridin-6-amine] | 50 to 100 |
| Cn1cncc1-c1cc2cnc(Nc3ccc(F)cc3)cc2[nH]1 [Compound 106, N-(4-fluorophenyl)-2-(3-methylimidazol-4-yl)-1H-pyrrolo[3,2-c]pyridin-6-amine] | 50 to 100 |
| CC(=O)c1cccc(Nc2cc3[nH]c(-c4cncn4C)cc3cn2)c1 [Compound 107, 1-[3-[[2-(3-methylimidazol-4-yl)-1H-pyrrolo[3,2-c]pyridin-6-yl]amino]phenyl]ethanone] | 50 to 100 |
| Cn1cncc1-c1cc2cnc(Nc3cccc(F)c3)cc2[nH]1 [Compound 108, N-(3-fluorophenyl)-2-(3-methylimidazol-4-yl)-1H-pyrrolo[3,2-c]pyridin-6-amine] | 50 to 100 |
| CC(C)Oc1ccc(Nc2cc3[nH]c(-c4cncn4C)cc3cn2)cc1 [Compound 109, N-(4-isopropoxyphenyl)-2-(3-methylimidazol-4-yl)-1H-pyrrolo[3,2-c]pyridin-6-amine] | 50 to 100 |
| COc1cccc(Nc2cc3[nH]c(-c4cn[nH]c4)cc3cn2)c1 [Compound 110, N-(3-methoxyphenyl)-2-(1H-pyrazol-4-yl)-1H-pyrrolo[3,2-c]pyridin-6-amine] | > 100 |
| COc1ccc(Nc2cc3[nH]c(-c4cn[nH]c4)cc3cn2)cc1OC [Compound 111, N-(3,4-dimethoxyphenyl)-2-(1H-pyrazol-4-yl)-1H-pyrrolo[3,2-c]pyridin-6-amine] | > 100 |
| CN(C)c1cccc(Nc2cc3[nH]c(-c4cn[nH]c4)cc3cn2)c1 [Compound 112, N1,N1-dimethyl-N3-[2-(1H-pyrazol-4-yl)-1H-pyrrolo[3,2-c]pyridin-6-yl]benzene-1,3-diamine] | 50 to 100 |
| Cc1cccc(Nc2cc3[nH]c(-c4cn[nH]c4)cc3cn2)c1 [Compound 113, N-(m-tolyl)-2-(1H-pyrazol-4-yl)-1H-pyrrolo[3,2-c]pyridin-6-amine] | 50 to 100 |
